The test system of test [1] is 11Z epithelial cells. Kind of test: PARP cleavage rate (apoptosis), Western blot, 11Z cells. Type of test: cell-based. The following applies: 24 h incubation, most estetrol and estradiol concentrations. The protocol:
(§1) FIG. 1. […] (A) Western blot analysis against PARP and β-actin after 24 h incubation (B) MTS assay after 24 h incubation (C) Scratch assay. […] The experiments were performed on 2 cell lines, Hs832, endometrial stromal cells and 11Z cells, endometrial epithelium cells.

The subject of test [2] is Hs832 stromal cell line. Kind of test: PARP cleavage rate (apoptosis), Western blot, Hs832 cells. The test is classed as cell-based. To be noted: 24 h incubation, almost all estetrol concentrations (except 108M). As for the experimental part: as §1
In test [3] the test system is 11Z epithelial cells. Kind of test: MTS cell viability assay, 11Z cells. Type of test: cell-based. The following applies: 24 h, all estetrol concentrations tested. The protocol:
(§2) FIG. 1. Evaluation of apoptosis, cell viability and migration after treatments with E2 and E4 in endometriotic cells. (A) Western blot analysis against PARP and β-actin after 24 h incubation (B) MTS assay after 24 h incubation (C) Scratch assay.
(§3) To assess cell viability, the MTS assay was performed after 24 h.

Test [4] has as its system Hs832 stromal cell line. Kind of test: MTS cell viability assay, Hs832 cells. The test is classed as cell-based. The following applies: 24 h, all estetrol concentrations tested. The protocol: as §2, §3
In general terms: Tetrazolium assays rely on reduction of a dye to a coloured formazan, in cell work by metabolically active cells.

The test system of another test is 11Z cells. Kind of test: Wound (scratch) migration assay, 11Z cells. The test is classed as cell-based. The following applies: estetrol 10^−6, any time point studied. As for the experimental part:
as §2

Another test deals with Hs832 cells. Kind of test: Wound (scratch) migration assay, Hs832 cells. The test is classed as cell-based. To be noted: Hs832, estetrol 10^−6, any time point studied. As for the experimental part:
as §2

In the next test the test system is ERα. Kind of test: ERα protein levels by Western blot in endometriotic cells. The following applies: most of the concentrations used. The test is classed as cell-based. Background: In western blotting, separated proteins are transferred to a membrane and probed.
For another test, the system named is ER β. Kind of test: ERβ protein levels by Western blot in endometriotic cells. The test is classed as cell-based.
The next test concerns ERα/ERβ ratio. Kind of test: ERα/ERβ ratio of protein levels in endometriotic cells. The test is classed as cell-based. The following applies: versus control and estradiol conditions.
In another test the test system is PRB. Kind of test: PRB protein levels by Western blot in endometriotic cells. Type of test: cell-based.
Test [5] deals with genes associated with the progesterone signaling pathway. Kind of test: PCR array for progesterone-regulated genes in Hs832 cells. Type of test: cell-based. To be noted: 24 h E4 (10^−6M) then 6h pulse with P4 (10^−7M), versus P4 without pre-treatment; for expression of PTGER2, NF1, MUC1, TWIST1 and SNAI1: change to a lesser extent. As for the experimental part:
FIG. 4. PCR Array Analysis for Progesterone-Regulated Genes in Endometrial Cells, Hs832 Cells. The expression of genes regulated by progesterone (P4) is compared, when incubating with P4 without previous treatment or with a 24 hour treatment with Estetrol.
Procedure: Hs832 endometriosis cells were incubated for 24 h with E4 (10^−6M) or vehicle (ethanol) as a control, then both cells received a 6h pulse with P4 (10^−7M) to then extract their messenger RNA in order to evaluate the levels. expression of 24 genes associated with the progesterone signaling pathway.

Another test deals with PRA. Kind of test: PRA protein levels by Western blot in endometriotic cells.

For `C[C@]12CC[C@@H]3c4ccc(O)cc4CC[C@H]3[C@@H]1[C@@H](O)[C@@H](O)[C@@H]2O` [estetrol], the “PARP cleavage rate (apoptosis)” value in the test with 11Z epithelial cells [1] was “apoptosis was reduced”; with Hs832 stromal cell line [2] it was “significant decrease”. In addition, the “changes in cell viability compared to controls (MTS)” value with 11Z epithelial cells [3] and with Hs832 stromal cell line [4] was “None of the estetrol concentrations tested showed changes” each time. The “migration (wound assay)” value in the test on 11Z cells and with Hs832 cells was “showed no difference from the control” in each case. Also, the “ERα levels over β-actin” value in the test with ERα (11Z, estetrol) is “robust increase”; with ERα (Hs832, estetrol), “robust increase”. Further, the “ER protein levels (ER β levels over β-actin, FIG. 2B)” value in the test with ER β (11Z, estetrol, most concentrations used) is “reduced levels”; in the test on ER β (Hs832, estetrol, all conditions), “reduced levels”. For the same compound, the ERα/ERβ ratio result in the test with ERα/ERβ ratio (11Z cells, estetrol 10^−7/10^−6/10^−5M) is listed as “significantly increases”; in the test with ERα/ERβ ratio (Hs832 cells, estetrol 10^−9/10^−7M), “significantly increases”. The “PRB protein levels over β-actin” value in the test on PRB (11Z cells, estetrol, all concentrations used) is “more consistent increase”; in the test with PRB (HsS32, estetrol 10^−6/10^−5M), “more consistent increase”. The “decrease of expression of FGF12, GCFC2, PWP1, ITGA6, ZEB1, POSTN and FKBP25” value in [5] is “to a lesser extent”. For the same compound, the “expression of NFIX, GNRFI1, ESR1, MEF2D and I HH” value in [5] is on record as “stimulating the expression”. The “expression of PRL, SNAI2, RAD54L, HES1, ABCG2, TCF4” value was “strongly decreasing” in test [5] and “strongly decreases” in test [5] (listed as E4). In addition, the “expression of PTGER2, NF1, MUC1, TWIST1 and SNAI1” value in [5] is reported as “increase”; in test [5] (listed as E4), “increases”. For the same compound, the “PRA protein levels over β-actin” value is on record as “increase” with PRA (11Z, estetrol 10^−9/10^−8M); “increase” in the test with PRA (Hs832, estetrol 10^−5M); “decreased” in the test on PRA (HsS32, estetrol 10^−9/10^−7M).

The values above are taken from patent publication US20240316064A1, “USE OF ESTRETOL AS A TREATMENT FOR ENDOMETRIOSIS” (UNIVERSIDAD BERNANDO O'HIGGINS, priority 2021, published 2024).
